Source: patent US20260345584A1, “METHODS AND PHARMACEUTICAL COMPOSITIONS FOR TREATING CHEMOTHERAPY-INDUCED PERIPHERAL NEUROPATHY WITH EG5 INHIBITORS” (UNIVERSITY OF MIAMI, priority 2023, published 2026)

Key:
[1] = system: microtubule detyrosination in keratinocytes; test: GluTub immunofluorescence of detyrosinated microtubules in zebrafish caudal fin keratinocytes; format: in vivo; conditions: 96 hr
Procedure: (§1) The stock solution was divided into 20-30 μl aliquots and stored at −20 °C until use (maximal 6 months). Immediately prior to use, paclitaxel was diluted in Ringer's solution and added to dechorionated larval zebrafish. The larval fish were placed individually or in small groups into wells of a 12-well plate containing the treatment solutions. The control group was 0.05% DMSO. Plates were incubated at 28.5 °C and protected from light. Treatment lengths are indicated in the Drawings, Description of the Drawings, and Examples where appropriate. […] EMD534085, Eg5 inhibitor (MedChemExpress, Cat. No. HY-15000) was diluted in 100% DMSO to make a 10 mM stock solution and stored at −20 °C. […] The solutions were exchanged every 48 hr.
Larval fish were transferred into […] glass vials and fixed in 4% paraformaldehyde (PFA)/1× Phosphate-buffered saline (PBS) for 1.5 hr at room temperature, with gentle rocking. Following a 5-minute incubation in 1×PBS+0.1% Tween-20 (PBST), zebrafish were permeabilized in 1×PBS+0.1% Triton X-100 for 10-30 min. Larval fish were transferred into 2 ml reaction tubes and incubated in blocking buffer (1×PBST+5% BSA) for 30 min at room temperature, with rocking. Larval fish were further incubated overnight in antibody solution (Millipore Sigma, Cat. No. AB3201, 1:300 rabbit anti-GluTub; Sigma, Cat No. T6793, 1:500 mouse anti-acetylated tubulin) in blocking buffer at 4 °C, on a rotator. The next morning, larval fish were transferred into 6-well plates and washed 4×15 min in 1×PBST at room temperature, with rocking. This was followed by incubation in secondary antibody (goat anti-rabbit Cy5, Abcam, Cat. No. ab97077; goat anti-mouse Cy3, Abcam, Cat. No. ab97035) and 1:10,000 Hoechst 33342 (ThermoFisher Scientific, Cat. No. 62249, 20 mM solution) in blocking buffer for 1 hr at room temperature, with rocking. Fish were covered to avoid bleaching. […]
Fluorescence intensities were measured using the Imaris MATLAB plugin or Fiji. A line was typically placed over the region of interest and the fluorescence automatically quantified. The values were normalized to nuclear (Hoechst33342) fluorescence intensities within the same fish and region to obtain an intensity ratio.
Stabilized microtubules undergo a modification whereby the terminal tyrosine residue was removed, leading to detyrosination (dMT) (Roll-Mecak et al., 2020, Developmental cell 54: 7-20), which was associated with particularly long-term stabilized microtubule populations (Khawaja et al., 1988, The Journal of cell biology 106: 141-149). Exposure of the penultimate glutamate residue can be detected using a GluTub antibody. […]

[2] = system: caudal fin keratinocytes (dfMTs); test: dfMT formation (detyrosinated fasciculated looped microtubules) in zebrafish caudal fin keratinocytes; format: in vivo
Procedure: as §1
(§2) Larval fish were transferred into […] glass vials and fixed in 4% paraformaldehyde (PFA)/1× Phosphate-buffered saline (PBS) for 1.5 hr at room temperature, with gentle rocking. Following a 5-minute incubation in 1×PBS+0.1% Tween-20 (PBST), zebrafish were permeabilized in 1×PBS+0.1% Triton X-100 for 10-30 min. Larval fish were transferred into 2 ml reaction tubes and incubated in blocking buffer (1×PBST+5% BSA) for 30 min at room temperature, with rocking. Larval fish were further incubated overnight in antibody solution (Millipore Sigma, Cat. No. AB3201, 1:300 rabbit anti-GluTub; Sigma, Cat No. T6793, 1:500 mouse anti-acetylated tubulin) in blocking buffer at 4 °C, on a rotator. The next morning, larval fish were transferred into 6-well plates and washed 4×15 min in 1×PBST at room temperature, with rocking. This was followed by incubation in secondary antibody (goat anti-rabbit Cy5, Abcam, Cat. No. ab97077; goat anti-mouse Cy3, Abcam, Cat. No. ab97035) and 1:10,000 Hoechst 33342 (ThermoFisher Scientific, Cat. No. 62249, 20 mM solution) in blocking buffer for 1 hr at room temperature, with rocking. Fish were covered to avoid bleaching. Fish were washed for 4×15 min in 1×PBST at room temperature, with rocking, and immediately mounted for imaging on glass bottom petri dishes (Spectrum Laboratory Products, Cat. No. 750-10403-UE) using 1% agarose (Thermo Fisher Scientific, Cat. No. 16520050). A 1:200 dilution was used for mouse alpha-tubulin antibody (Proteintech, Cat. No. 66031-1) and a 1:1,000 dilution of donkey anti-mouse IgG Alexa488 (ThermoFisher Scientific, Cat. No. A-21202) for secondary detection. For Nox1 immunostaining, a 1:300 dilution of primary antibody (Anti-NOX1 Rabbit Polyclonal Antibody, Avantar, Cat. No. 102164-796) and a 1:1,000 dilution of secondary goat anti-rabbit Cy2 (Abcam, Cat. No. ab6940) antibody was used. Eg5 antibody (Abcam, Cat. No. 61199) was used at a 1:100 and secondary goat anti-rabbit Cy2 (Abcam, Cat. No. ab6940) at 1:1,000 dilution.
CRISPR oligos targeting kif11 were designed using the IDT CRISPR design tool (https://www.idtdna.com/site/order/designtool/index/CRISPR_CUSTOM). The oligo (5′-[…] (SEQ ID NO: 21) was designed to anneal within exon 5 of 23 exons total in zebrafish kif11 with expected mutations ~ position 270 bp in the sequenced region using the following primers for PCR amplification: Fwd 5′-[…]-3′ (SEQ ID NO: 22) and Rev 5′-[…]-3′ (SEQ ID NO: 23). The forward primer was used for sequencing and yielded deletions in transiently injected embryos, as shown in example below in which single zebrafish were sequenced (FIG. 10).
The CRISPR oligo was injected using the Alt-R system (IDT, https://www.idtdna.com/pages/technology/crispr/crispr-genome-editing/Alt-R-systems/cas9), which has provided highly reliable and efficient zebrafish knockout results as used herein. The IDT-recommended protocol (below) was used for CRISPR oligo preparations. Fertilized eggs were injected ~15 minutes post fertilization with CRISPR oligos to ensure maximal efficiency.
Cell counting in the caudal fin was performed in three 100 μm^2 boxes in the dorsal, medial and ventral caudal fin (~100 μm from the edge). […]

cutaneous sensory axons = test: Axon branch number in caudal fin (acetylated tubulin staining); format: in vivo, zebrafish
Procedure: as §1, §2
Axon branch number quantifications were performed by drawing a 50 μm line across the dorsal, medial, and ventral caudal fin edge region at a distance of 100 μm parallel to the fin edge (which was determined to be the most reliable region to quantify distal branch numbers). Axons traversing this line were counted and averaged per treatment group. Axonal fluorescence measurements were taken using the Imaris Spots function by manually placing spots along the axon and using the fluorescence intensity profile measurements MatLab tool.
Stretching was performed after 96 hr treatment, followed by 2 hr post-stretch fixation, and staining for detection of acetylated tubulin in axons.
To further validate Eg5 as the pharmacological target of EMD534085 in axon regeneration, zebrafish injected with kif11 CRISPR oligo were also analyzed.

Eg5 = Eg5 immunofluorescence in zebrafish caudal fin; format: in vivo; conditions: transient kif11 CRISPR, exon 5
Procedure: as §1
Larval fish were transferred into […] glass vials and fixed in 4% paraformaldehyde (PFA)/1× Phosphate-buffered saline (PBS) for 1.5 hr at room temperature, with gentle rocking. Following a 5-minute incubation in 1×PBS+0.1% Tween-20 (PBST), zebrafish were permeabilized in 1×PBS+0.1% Triton X-100 for 10-30 min. Larval fish were transferred into 2 ml reaction tubes and incubated in blocking buffer (1×PBST+5% BSA) for 30 min at room temperature, with rocking. […]

[3] = system: CIPN caused by bortezomib; conditions: mice (Bobylev et al., 2017); cited from earlier work
mouse DRG neurons = conditions: cultured mouse DRG neurons (Haque et al., 2004); cited from earlier work

Row | Compound | normalized detyrosination fluorescence intensity ([1]; kif11 CRISPR + paclitaxel) | normalized detyrosination fluorescence intensity ([1]; kif11 CRISPR+vehicle) | number of keratinocytes per animal with dfMTs ([2]; kif11 CRISPR+22 μM paclitaxel) | percent animals with dfMTs ([2]; kif11 CRISPR+22 μM paclitaxel) | number of keratinocytes per animal with dfMTs ([2]; kif11 CRISPR+vehicle) | percent animals with dfMTs ([2]; kif11 CRISPR+vehicle) | axon branch number (cutaneous sensory axons; kif11-CRISPR+22 μM paclitaxel) | axon branch number (cutaneous sensory axons; kif11-CRISPR+vehicle) | Eg5 protein expression (Eg5) | effect on CIPN caused by bortezomib [3] | neurite outgrowth (mouse DRG neurons)
1 | kif11 CRISPR: CRISPR oligo (5′-AGGTGACCGATCACCCAATG (SEQ ID NO: 21)) targeting exon 5 of zebrafish kif11, injected as Cas9 ribonucleoprotein (injected as Cas9 ribonucleoprotein, chemistry not given here) | 0.85±0.11 | 1.12±0.2 | 0.29±0.16 | 25% | 0±0 | 0% | 12.83±0.96 branches/50 μm | 12.08±0.68 branches/50 μm | eliminated Eg5 protein expression |  | 
2 | CCOC(=O)C1=C(C)NC(=S)NC1c1cccc(O)c1 (centres unmarked) [monastrol] |  |  |  |  |  |  |  |  |  | shown to alleviate CIPN caused by bortezomib | promotes neurite outgrowth
